Test results: US12595289B2, “Therapeutic agent for breast cancer comprising BIG3-PHB2 interaction-inhibiting peptide derived from PHB2” (TOKUSHIMA UNIVERSITY, priority 2018, dated 2026)
“And” between values parts separate entries of the source, which are not always exact repeats. Equal values may be shown once. Positions of bridges follow the written chain, without caps; N, C: chain ends. Non-standard residues stand in square brackets, D forms with d. Residues, ends and D or L forms follow the SMILES beside them. No end group written: not given here. 2Nal = N[C@@H](Cc1ccc2ccccc2c1)C(=O)O; Nle = CCCC[C@H](N)C(=O)O; PEG = not defined here

Legend:
[1] = system: Human breast cancer cell line MCF-7; experiment: Estrogen (E2)-dependent growth assay on MCF-7; assay type: cell-based; conditions: 10 nM estrogen
[2] = system: Human breast cancer cell line MCF-7; experiment: Estrogen (E2)-dependent growth assay on MCF-7; assay type: cell-based; conditions: 24 hours; for suppression ratio of E2-dependent growth: MCF-7, 10 μM each peptide, 10 nM estrogen; for suppression ratio of estrogen-dependent growth: MCF-7, 10 nM estrogen, peptide concentration not given (FIG. 11B, 12B)
Procedure: (§1) Growth assay on MCF-7 was carried out by seeding cells into 48-well plates (2×10^4 cells/200 μL). First, on the next day after seeding, the medium was changed to phenol red-free DMEM/F12 (Thermo Fisher Scientific) supplemented with 10% FBS, 1% Antibiotic/Antimycotic solution, 0.1 mM NEAA, 1 mM sodium pyruvate, and 10 μg/mL insulin. 24 hours later, the cells were treated with 10 nM 17β-estradiol (estrogen, Sigma) alone or with 10 nM estrogen and a PHB2 sequence-derived peptide. Growth assay on MCF-10A was carried out by seeding cells into 48-well plates (2×10^4 cells/200 μL). 24 hours after seeding, PHB2 sequence-derived peptide was added. Growth assays were carried out using the Cell Counting Kit-8 (CCK-8) (Dojindo, Kumamoto, Japan). The data are shown by mean±standard deviation of three independent experiments.
PHB2 peptides 11-21aa and 76-88aa were cross-linked by three types of cross-linking methods (FIG. 10A: hexafluorobenzene cross-linking, decafluorobiphenyl cross-linking, and disulfide cross-linking) to prepare cross-linked PHB2 peptides (stapled PHB2 peptides) (FIG. 10B), and the suppressive effects of these peptides on estrogen-dependent growth were examined. In the experiment, breast cancer cells MCF-7 were seeded, 10 μM each PHB2 peptide and 10 nM estrogen were added after 48 hours, and the cell number was evaluated after another 24 hours by MTT assay.

[3] = system: Normal mammary gland epithelial cell line MCF-10A; experiment: Growth assay on normal mammary gland epithelial cells MCF-10A; assay type: cell-based
Procedure: as §1

[4] = system: PHB2 (Ser39) phosphorylation; experiment: Ser39 phosphorylation of PHB2 in MCF-7 by Western blotting; assay type: cell-based, Human; conditions: MCF-7, 10 μM each peptide, 10 nM estrogen, 24 hours (FIG. 2C)
Procedure: For immunoblot analyses, after performing SDS-PAGE, the membranes blotted with proteins were blocked with 4% BlockAce solution (Dainippon Pharmaceutical, Osaka, Japan) for 3 hours and then incubated to react for 12 hours with antibodies against BIG3 (1:1,000), PHB2 (1:1,000) (Abcam, Cambridge, UK) and phosphorylated PHB2 (Ser39, Scrum, Tokyo, Japan). After allowing interaction with HRP-labeled secondary antibodies (anti-rat IgG-HRP for BIG3, 1:5,000; and anti-rabbit IgG-HRP for PHB2 and phosphorylated PHB2, 1:1,000) (Santa Cruz Biotechnology, Dallas, TX, USA) for 1 hour, the blots were developed with the Enhanced Chemiluminescence (ECL) system (GE Healthcare, Buckinghamshire, UK) and scanned using the Image Reader LAS-3000 mini (Fujifilm, Tokyo, Japan).

[5] = MCF-7, 4 μM cyclic 11-21aa, 2 μM cyclic 76-88aa, up to 96 hours (FIG. 7B)
[6] = MCF-7, 10 μM peptide alone, after 96 hours
[7] = MCF-10A (FIG. 6B), 1 μM or 10 μM, up to 96 hours
[8] = MCF-10A, cyclic 11-21aa 4 μM, cyclic 76-88aa 2 μM (FIG. 7C)

Compound | suppression ratio of E2-dependent growth [2] | suppression ratio of estrogen-dependent growth [2] | further results
CCCC[C@@H]1NC(=O)CNC(=O)[C@H](CCCNC(=N)N)NC(=O)[C@@H]2CCCN2C(=O)CNC(=O)[C@H](C)NC(=O)[C@@H]2CCCN2C(=O)[C@H](CC(C)C)NC(=O)[C@H](CCCNC(=N)N)NC(=O)[C@@H]2CSSC[C@H](NC(=O)[C@H]([C@@H](C)O)NC(=O)CNC1=O)C(=O)N[C@@H](Cc1ccccc1)C(=O)N[C@@H](Cc1ccc3ccccc3c1)C(=O)N[C@@H](CCCNC(=N)N)C(=O)N[C@@H](CCCNC(=N)N)C(=O)N[C@@H](CCCNC(=N)N)C(=O)N[C@@H](CCCNC(=N)N)C(=O)N2 [cyclic 11-21aa] (cyclo(CRLPAGPRG[Nle]GTCF[2Nal]RRRR); disulfide 1-13) | enhanced suppression ratios compared to non-cyclic peptides |  | suppression ratio of E2-dependent growth [1, 5]: 41%; suppression ratio of E2-dependent growth [1, 6]: 67%; suppression ratio of E2-dependent growth ([2]; listed as cyclic peptide 11-21aa): 53%; effect on growth of MCF-10A [3, 7]: no effect on the growth; effect on growth of MCF-10A [3, 8]: no effect on growth
CC[C@H](C)[C@@H]1NC(=O)[C@H](CC(=O)O)NC(=O)[C@H](Cc2ccc(O)cc2)NC(=O)[C@H]([C@@H](C)CC)NC(=O)[C@H]([C@@H](C)CC)NC(=O)[C@@H]2CCCN2C(=O)[C@H](Cc2ccc(O)cc2)NC(=O)[C@H](CCC(N)=O)NC(=O)[C@@H]2CSSC[C@H](NC(=O)[C@H](CCCNC(=N)N)NC(=O)[C@@H]3CCCN3C(=O)[C@H](CCCNC(=N)N)NC(=O)[C@H](C)NC(=O)[C@H](CCCNC(=N)N)NC1=O)C(=O)N[C@@H](Cc1ccccc1)C(=O)N[C@@H](Cc1ccc3ccccc3c1)C(=O)N[C@@H](CCCNC(=N)N)C(=O)N[C@@H](CCCNC(=N)N)C(=O)N[C@@H](CCCNC(=N)N)C(=O)N[C@@H](CCCNC(=N)N)C(=O)N2 [cyclic 76-88aa] (cyclo(CQYPIIYDIRARPRCF[2Nal]RRRR); disulfide 1-15) | enhanced suppression ratios compared to non-cyclic peptides |  | suppression ratio of E2-dependent growth [1, 5]: 59%; suppression ratio of E2-dependent growth [1, 6]: 72%; suppression ratio of E2-dependent growth ([2]; listed as cyclic peptide 76-88aa): 58%; effect on growth of MCF-10A [3, 7]: no effect on the growth; effect on growth of MCF-10A [3, 8]: no effect on growth
No. 2: PHB2 sequence-derived peptide 42-50aa (TVEGGHRAI; not fully specified (C-terminus)) | 22% and 20% |  | 
No. 3: PHB2 sequence-derived peptide 38-50aa (ESVFTVEGGHRAI; not fully specified (C-terminus)) | 23% and 17% |  | 
No. 6: PHB2 peptide 86-100aa (negative control) (RPRKISSPTGSKDLQ; not fully specified (C-terminus)) | about 10% |  | band intensity of Ser39 phosphorylation of PHB2 compared to ERAP treatment [4]: 10%
No. 50: PHB2 sequence-derived peptide 75-89aa (FQYPIIYDIRARPRK; not fully specified (C-terminus)) | almost the same suppressive effect |  | 
SEQ ID NO: 115: cross-linked PHB2 peptide 11-21aa without polyarginine at the C terminus (CRLPAGPRG[Nle]GTC-NH2; linker 1-13 via hexafluorobenzene) | about 70% |  | 
SEQ ID NO: 116: cross-linked PHB2 peptide 11-21aa without polyarginine at the C terminus (CRLPAGPRG[Nle]GTC-NH2; linker 1-13 via decafluorobiphenyl) | about 70% |  | 
SEQ ID NO: 117: cross-linked PHB2 peptide 11-21aa without polyarginine at the C terminus (CRLPAGPRG[Nle]GTC-NH2; disulfide 1-13) | about 70% |  | 
SEQ ID NO: 119: cross-linked PHB2 peptide 76-88aa without polyarginine at the C terminus (CQYPIIYDIRARPRC-NH2; linker 1-15 via hexafluorobenzene) | about 70% |  | 
SEQ ID NO: 120: cross-linked PHB2 peptide 76-88aa without polyarginine at the C terminus (CQYPIIYDIRARPRC-NH2; linker 1-15 via decafluorobiphenyl) | about 70% |  | 
SEQ ID NO: 121: cross-linked PHB2 peptide 76-88aa without polyarginine at the C terminus (CQYPIIYDIRARPRC-NH2; disulfide 1-15) | about 70% |  | 
SEQ ID NO: 123: cyclic PHB2 peptide 11-21aa, hexafluorobenzene cross-linked (CRLPAGPRG[Nle]GTCF[Nal]RRRR; linker 1-13 via hexafluorobenzene; not fully specified (C-terminus)) |  | about 70% | 
SEQ ID NO: 124: cyclic PHB2 peptide 11-21aa, decafluorobiphenyl cross-linked (CRLPAGPRG[Nle]GTCF[Nal]RRRR; linker 1-13 via decafluorobiphenyl; not fully specified (C-terminus)) |  | about 70% | 
SEQ ID NO: 126: cyclic PHB2 peptide 76-88aa, hexafluorobenzene cross-linked (CQYPIIYDIRARPRCF[Nal]RRRR; linker 1-15 via hexafluorobenzene; not fully specified (C-terminus)) |  | about 80% | 
SEQ ID NO: 127: cyclic PHB2 peptide 76-88aa, decafluorobiphenyl cross-linked (CQYPIIYDIRARPRCF[Nal]RRRR; linker 1-15 via decafluorobiphenyl; not fully specified (C-terminus)) |  | about 80% | 
SEQ ID NO: 133: PHB2 peptide 11-22aa in which glycines at positions 15 and 18 were substituted with D-alanines (RLPA[dA]PR[dA]MGTARRRRRRRR-NH2) |  | no suppressive effect | 
SEQ ID NO: 134: PHB2 peptide 11-22aa in which glycines at positions 15 and 18 were substituted with D-leucines (RLPA[dL]PR[dL]MGTARRRRRRRR-NH2) |  | about 65% | 
branched bound: 11-22aa and 76-90aa sequences synthesized with branching, linked via a PEG sequence (peptide 1 RLPAGPRGMGTA; peptide 2 QYPIIYDIRARPRKI; linker (positions not given here) via PEG; not fully specified (N-terminus); reading uncertain; also: branched construct, branch and link places not given here) | 57% |  | inhibition ratio of MCF-10A growth ([3]; MCF-10A, 10 μM each peptide, 24 hours): no effect on growth
